Active and inactive are the calls of the source. No rule for the calls is given here. A value given as a limit tells only on which side of the number the result lay.

This experiment addresses Methyl-CpG-binding domain protein 2 (Homo sapiens) (UniProt Q9UBB5). The experiment can be described thus: inhibitors of MBD2 binding to methylated DNA, dose response, biochemical, TR-FRET, DNA-binding domain, late stage (AID 1053169). As to conditions: TR-FRET MBD2-DBD binding to methylated oligonucleotide. For orientation: Time-resolved FRET reads energy transfer from a long-lived donor to a nearby acceptor.

Chain of Methyl-CpG-binding domain protein 2 (Homo sapiens) (Q9UBB5 whole entry, looked up, the tested form may be a part): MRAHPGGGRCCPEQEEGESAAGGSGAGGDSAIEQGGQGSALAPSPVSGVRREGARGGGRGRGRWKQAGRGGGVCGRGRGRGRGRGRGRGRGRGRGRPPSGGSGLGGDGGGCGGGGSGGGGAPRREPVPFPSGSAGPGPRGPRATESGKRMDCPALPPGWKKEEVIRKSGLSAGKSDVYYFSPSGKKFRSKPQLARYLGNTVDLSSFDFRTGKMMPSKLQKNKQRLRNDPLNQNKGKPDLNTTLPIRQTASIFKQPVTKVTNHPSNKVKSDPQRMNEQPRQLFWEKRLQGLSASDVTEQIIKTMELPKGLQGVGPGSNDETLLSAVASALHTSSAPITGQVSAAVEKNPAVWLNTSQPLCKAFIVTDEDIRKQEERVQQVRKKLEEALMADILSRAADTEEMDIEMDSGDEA

By IC50 is commonly meant the concentration that gives 50% inhibition. On to `COc1ccc(C(=O)N2CCC(C(=O)Nc3ccc(C)cc3)CC2)cc1`, for which the IC50 is > 43.8 µM (inactive).

As to `O=C(Nc1ccc(OCc2ccccc2)cc1)c1ccccc1`, the IC50 was > 43.8 µM (inactive).

Regarding `CCc1cccc(OCC(=O)Nc2ccc(S(=O)(=O)Nc3ccccn3)cc2)c1`, the IC50 is > 43.8 µM (inactive).

In the case of `CSc1ccc(OC2CCCCC2NS(=O)(=O)c2ccccc2)cc1` (stereo not given), the IC50 was > 43.8 µM (inactive).

Regarding `COc1ccc(NC(=O)CN2CCN(c3ccccc3C)CC2)cc1`, the IC50 is > 43.8 µM (inactive).

As to `CCOc1ccc(S(=O)(=O)N2CCCC(C(=O)NCC3CCCO3)C2)cc1Cl` (stereo not given), the IC50 is > 43.8 µM (inactive).

Turning to `O=C(CSc1ccccn1)Nc1ccc(N2CCOCC2)cc1`, the IC50 was > 43.8 µM (inactive).

Consider `COc1ccccc1C(=O)COC(=O)c1ccc(N(C)C)cc1`, for which the IC50 was > 43.8 µM (inactive).

`CCOC(=O)c1ccc(NC(=O)COc2ccc(CNCCO)cc2OCC)cc1`: the IC50 was > 43.8 µM (inactive).

For the molecule `CCOC(=O)c1oc2ccc(CNC(C)(C)C)c(Cl)c2c1C`, the IC50 was > 43.8 µM (inactive).

Turning to `CC(C)C(=O)Nc1nnc(SCC(=O)NC2CCCC2)s1`, the IC50 was > 43.8 µM (inactive).

As to `CCCCn1c(NC(C)CC)nc2c1c(=O)[nH]c(=O)n2C` (stereo not given), the IC50 was > 43.8 µM (inactive).

In the case of `O=C(CSc1nc(-c2ccccc2)c(-c2ccccc2)o1)N1CCOCC1`, the IC50 is > 43.8 µM (inactive).

Consider `COc1ccc(NC(=O)COC(=O)CCc2ccc(S(=O)(=O)N3CCOCC3)cc2)cc1Cl`, for which the IC50 is > 43.8 µM (inactive).

On to `Cc1cc(C)n2nc(CC(=O)NCc3ccc(F)cc3)nc2n1`, for which the IC50 is > 43.8 µM (inactive).

With `COc1ccc(NC(=O)Cn2cc(C(C)=O)c3ccccc32)cc1`, the IC50 is > 43.8 µM (inactive).

Consider `CSc1ccc(OC2CCCCC2NS(=O)(=O)c2ccc(Cl)cc2)cc1` (stereo not given), for which the IC50 is > 43.8 µM (inactive).

With `CC(=O)N(c1ccccc1)c1nc(/C=C/C(=O)Nc2c(C)cc(C)cc2C)cs1`, the IC50 was > 43.8 µM (inactive).

As to `Cc1ccc(Cl)cc1N1CCN(S(=O)(=O)c2ccc3c(c2)NC(=O)C(C)C(=O)N3)CC1` (stereo not given), the IC50 is > 43.8 µM (inactive).

`CC(C)n1nc(C(=O)Nc2nc3ccccc3[nH]2)c2ccccc2c1=O`: the IC50 is > 43.8 µM (inactive).

The values above are taken from PubChem BioAssay AID1053169 (The Scripps Research Institute Molecular Screening Center, 2014).
